Reference: patent US20220016023A1, “METHOD FOR TREATING MYOPIA AND APPLICATION IN PREPARATION OF MEDICAMENT” (WENZHOU MEDICAL UNIVERSITY, priority 2018, published 2022)
Read-outs that look alike come from different tables or passages of the source.

Tested on: form deprivation myopia
Conditions: for difference of binocular refractions / difference of binocular axial lengths: 2 weeks after form deprivation, p<0.01; for difference of binocular axial lengths: vehicle 0.17±0.05

Structure (SMILES)	difference of binocular refractions (FDM+Pr (10 μM), FDM+Vehicle −5.98±2.22, FIG. 6A) [D]	difference of binocular axial lengths (FDM+Pr (10 μM), FIG. 6B) [mm]	difference of binocular refractions (FDM+NA (0.1 mg), FDM+Vehicle −5.43±1.69, FIG. 5A) [D]	difference of binocular axial lengths (FDM+NA (0.1 mg), FIG. 5B) [mm]	choroidal blood flow, fellow eye vs. test eye (after periocular injection of 0.1 mg nicotinic acid, 2 weeks form deprivation, FIG. 5C)
COc1cc2nc(N3CCN(C(=O)c4ccco4)CC3)nc(N)c2cc1OC [prazosin]	−3.26±2.22	0.10±0.06			
O=C(O)c1cccnc1 [nicotinic acid]			−3.43±1.80	0.10±0.06	no statistical difference between two eyes
